Data set [1] is classed as physicochemical. From the text:
Insoluble in hexane and petroleum ether.
The compound is neutral and is insoluble in neutral or acidic aqueous media. It is, however, converted to an acidic substance by treatment with alkali and this acidic substance is soluble in water. The acidic substance can be extracted with ethyl acetate or chloroform at acid pH values and will revert to Monacolin K on evaporation of the solvent.

Another data set can be described thus: Acute oral toxicity. To be noted: in vivo, mouse. From the text: Not only does Monacolin K have a valuable inhibitory effect on the biosynthesis of cholesterol, but it also has a very low toxicity, making its use for the treatment of hypercholesteraemia potentially very attractive. Specifically the acute oral toxicity (LD50) of Monacolin K in the mouse is 1 g/kg body weight or more.

In a further data set the test system is rabbits. Description: Reduction of blood cholesterol levels in rabbits. The settings on record: rabbit, 1 mg/kg oral twice each day. The class given is in vivo. On the procedure:
In this test, the ability of Monacolin K to reduce cholesterol levels in rabbit blood is measured. The animals employed should each weigh from 2.5 to 3.0 kg. At the beginning of the tests, blood is collected from a vein in an ear of each rabbit and the cholesterol level in the blood serum is measured by a conventional method. A predetermined quantity of Monacolin K or of a Monacolin K-containing culture broth is then administered orally continuously for from 1 to 5 days and the cholesterol level in the blood serum is measured at stages after the administration. The potency of the Monacolin K or Monacolin K-containing culture medium can be determined quantitatively from the blood cholesterol levels obtained prior to and after administration of the Monacolin K.
The test animals used were rabbits having a body weight of from 2.7. kg to 2.9 kg. Each rabbit was given orally 1 mg/kg of Monacolin K twice each day (morning and evening) continuously for 5 days. Prior to administration and at 3 and 5 days after administration, blood was collected from a vein in the ear and the cholesterol levels in the blood serum were determined.

In another data set the target is T1, HMG-CoA reductase (Rattus norvegicus, UniProt P51639).
T1 sequence (P51639 1-887): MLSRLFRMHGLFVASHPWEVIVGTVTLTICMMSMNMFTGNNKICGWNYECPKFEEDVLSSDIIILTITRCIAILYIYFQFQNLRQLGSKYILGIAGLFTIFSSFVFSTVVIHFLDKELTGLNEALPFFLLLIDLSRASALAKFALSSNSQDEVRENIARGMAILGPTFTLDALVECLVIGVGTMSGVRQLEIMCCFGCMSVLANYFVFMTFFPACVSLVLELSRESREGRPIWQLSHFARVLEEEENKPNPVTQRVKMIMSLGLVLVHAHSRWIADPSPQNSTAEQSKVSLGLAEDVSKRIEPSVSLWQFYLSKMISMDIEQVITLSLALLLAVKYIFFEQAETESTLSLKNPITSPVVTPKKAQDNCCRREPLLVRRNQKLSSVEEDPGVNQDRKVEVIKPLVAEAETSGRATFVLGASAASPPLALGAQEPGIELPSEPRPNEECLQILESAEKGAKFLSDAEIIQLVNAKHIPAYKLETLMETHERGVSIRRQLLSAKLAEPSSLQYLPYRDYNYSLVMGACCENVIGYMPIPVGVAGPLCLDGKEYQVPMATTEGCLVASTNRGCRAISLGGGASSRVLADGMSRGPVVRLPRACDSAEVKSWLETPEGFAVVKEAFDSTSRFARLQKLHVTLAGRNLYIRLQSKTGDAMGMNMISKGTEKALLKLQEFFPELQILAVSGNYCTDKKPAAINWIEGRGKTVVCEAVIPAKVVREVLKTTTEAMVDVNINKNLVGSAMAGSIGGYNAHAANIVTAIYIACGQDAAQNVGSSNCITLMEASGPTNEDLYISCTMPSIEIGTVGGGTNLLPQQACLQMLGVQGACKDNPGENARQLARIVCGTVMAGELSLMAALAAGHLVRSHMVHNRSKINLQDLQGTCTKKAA
Description: biochemical. From the text:
The value is obtained by the product of the concentrations of enzyme and of inhibitor divided by the concentration of the enzyme-inhibitor complex.

The test system of data set [2] is rats of the Wistar Imamichi strain. Description: Reduction of blood and liver cholesterol levels in Triton WR-1339 treated rats. The class given is in vivo. To be noted: rat. As for the experimental part: The animals used were rats of the Wistar Imamichi strain, each having a body weight of about 300 g. The tests were conducted on groups of rats, each group consisting of 5 animals. Each animal was intravenously injected with 400 mg/kg of Triton WR-1339 (a trade name for a material known to increase the blood cholesterol level) whilst simultaneously administering 10 mg/kg of Monacolin K either orally or intraperitoneally. 20 hours after oral administration or 14 hours after intraperitoneal administration, the rats were sacrificed by bleeding and the blood and livers were collected and their cholesterol levels were determined by conventional means.

Data set [3] has as its target cholesterol biosynthesis (crude enzymes from rat liver). Description: In vitro test with rat liver: inhibition of cholesterol biosynthesis from radioactive acetic acid. The class given is biochemical. The settings on record: acetic acid reacted with enzyme from rat liver.
Setting [4] is: 10 mg/kg oral, 20 hours after administration.

`CCC(C)C(=O)OC1CC(C)C=C2C=CC(C)C(CCC(O)CC(O)CC(=O)O)C21` (stereo not shown) [acidic substance]: in data set [1], the Solubility result was “soluble”.

What is called LD50 is the dose expected to kill half of the subjects tested. The term Ki denotes a measure of affinity in units of concentration, obtained from inhibition or displacement. In the data set “Acute oral toxicity”, `CCC(C)C(=O)OC1CC(C)C=C2C=CC(C)C(CCC3CC(O)CC(=O)O3)C21` (stereo not shown) [Monacolin K] had an LD50 of no less than 1000 mg/kg. The entries for the “blood serum cholesterol level lower than prior to administration” value in the data set with rabbits (at 3 days) and in the data set on rabbits (at 5 days) were 15% and 29%, respectively. The Ki at HMG-CoA reductase (competitive with respect to HMG-CoA, read-out: Ki value (inhibition constant)) was found to be 0.53 nM. The “manner of inhibition of HMG-CoA reductase” value on HMG-CoA reductase (with respect to HMG-CoA) is “competitive”. The “reduction of blood cholesterol level vs control group (Triton WR-1339 alone)” value in data set [2] (10 mg/kg intraperitoneal, 14 hours after administration) was 23.9%; in data set [2] (setting [4]) it was 22.4%. Moreover, the “reduction of liver cholesterol level” value in data set [2] (setting [4]) is on record as 16.7%. The “concentration giving 50% inhibition of cholesterol biosynthesis” value in data set [3] amounted to 0.002 µg/mL.

Source of the values: patent publication US4323648A, “Preparation of Monacolin K” (Sankyo Company Limited, priority 1979, dated 1982).
